Results as given in PubChem BioAssay (NCI).
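Dose response: 5 concentrations. Exposure: 48 h. Format: 96-well plates. Endpoint: linear interpolation; highest concentration if not reached. GI50 marks 50% less growth. TGI is the concentration that stops growth completely.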

Assays:
Assay in all cases: NCI-60 cell line screen, 48 h
[1] = test system: M14 melanoma
[2] = test system: SK-MEL-2 melanoma
[3] = test system: HOP-62 NSCLC
[4] = test system: BT-549 breast
[5] = test system: COLO 205 colon
[6] = test system: SK-MEL-5 melanoma
[7] = test system: TK-10 renal
[8] = test system: RXF 393 renal
[9] = test system: MDA-MB-231 breast
[10] = test system: HCC-2998 colon
[11] = test system: HS 578T breast
[12] = test system: OVCAR-4 ovarian
[13] = test system: OVCAR-3 ovarian
[14] = test system: HCT-116 colon
[15] = test system: NCI/ADR-RES ovarian
[16] = test system: SK-MEL-28 melanoma
[17] = test system: MOLT-4 leukemia
[18] = test system: OVCAR-8 ovarian
[19] = test system: SNB-19 CNS
[20] = test system: A498 renal
[21] = test system: CAKI-1 renal
[22] = test system: HOP-92 NSCLC
[23] = test system: K-562 leukemia
[24] = test system: IGROV1 ovarian
[25] = test system: A549 NSCLC
[26] = test system: SR leukemia
[27] = test system: 786-0 renal
[28] = test system: MCF7 breast
[29] = test system: EKVX NSCLC
[30] = test system: HL-60(TB) leukemia
[31] = test system: SN12C renal
[32] = test system: UACC-62 melanoma
[33] = test system: T-47D breast
[34] = test system: ACHN renal
[35] = test system: UO-31 renal
[36] = test system: RPMI-8226 leukemia
[37] = test system: DU-145 prostate
[38] = test system: OVCAR-5 ovarian
[39] = test system: NCI-H23 lung
[40] = test system: KM12 colon
[41] = test system: HCT-15 colon
[42] = test system: HT29 colon
[43] = test system: PC-3 prostate
[44] = test system: NCI-H460 lung
[45] = test system: SF-295 CNS
[46] = test system: SW-620 colon
[47] = test system: SK-OV-3 ovarian
[48] = test system: CCRF-CEM leukemia
[49] = test system: NCI-H226 lung
[50] = test system: UACC-257 melanoma
[51] = test system: MALME-3M melanoma
[52] = test system: U251 CNS
[53] = test system: LOX IMVI melanoma
[54] = test system: NCI-H522 lung
[55] = test system: MDA-MB-435
[56] = test system: SF-268 CNS
[57] = test system: SF-539 CNS
[58] = test system: SNB-75 CNS

Compound `C/C(=C(\c1ccc(OCCN2CCCCCC2)cc1)c1ccc(OC(=O)c2ccccc2)cc1)c1ccc(Cl)cc1` has a GI50 [1] of 0.92 µM, a TGI [1] of 3.33 µM and a GI50 [2] of 5.32 µM. For the same compound, the TGI [2] was 10.5 µM, the GI50 [3] was 4.35 µM and the TGI [3] was 8.95 µM. It also gave a GI50 [4] of 4.56 µM, a TGI [4] of 8.99 µM and a GI50 [5] of 2.31 µM. It also gave a TGI [5] of 7.76 µM, a GI50 [6] of 4.55 µM and a TGI [6] of 8.84 µM. It also gave a GI50 [7] of 5.14 µM, a TGI [7] of 10.8 µM and a GI50 [8] of 3.71 µM. It also gave a TGI [8] of 8.18 µM, a GI50 [9] of 4.9 µM and a TGI [9] of 9.96 µM. It also gave a GI50 [10] of 2.36 µM, a TGI [10] of 7.03 µM and a GI50 [11] of 3.04 µM. The TGI [11] was 9.76 µM, the GI50 [12] was 3.6 µM and the TGI [12] was 9.82 µM. For the same compound, the GI50 [13] was 4.06 µM, the TGI [13] was 8.49 µM and the GI50 [14] was 1.62 µM. The TGI [14] was 6.05 µM, the GI50 [15] was 4.56 µM and the TGI [15] was 11.2 µM. For the same compound, the GI50 [16] was 4.33 µM, the TGI [16] was 9.02 µM and the GI50 [17] was 2.25 µM. For the same compound, the TGI [17] was 10.9 µM, the GI50 [18] was 5.15 µM and the TGI [18] was 10.5 µM. The GI50 [19] was 6.61 µM, the TGI [19] was 18.5 µM and the GI50 [20] was 3.79 µM. The TGI [20] was 8.09 µM, the GI50 [21] was 3.86 µM and the TGI [21] was 9.27 µM. For the same compound, the GI50 [22] was 3.57 µM, the TGI [22] was 7.8 µM and the GI50 [23] was 1.31 µM. The TGI [23] was 33.3 µM, the GI50 [24] was 4.36 µM and the TGI [24] was 10.7 µM. It also gave a GI50 [25] of 4.16 µM, a TGI [25] of 10.9 µM and a GI50 [26] of 0.996 µM. It also gave a TGI [26] of 3.33 µM, a GI50 [27] of 3.58 µM and a TGI [27] of 7.73 µM. For the same compound, the GI50 [28] was 0.348 µM, the TGI [28] was 5.94 µM and the GI50 [29] was 4.97 µM. The TGI [29] was 13.9 µM, the GI50 [30] was 3.35 µM and the TGI [30] was 11.5 µM. It also gave a GI50 [31] of 4.21 µM, a TGI [31] of 9.53 µM and a GI50 [32] of 5.1 µM. For the same compound, the TGI [32] was 11.1 µM, the GI50 [33] was 1.76 µM and the TGI [33] was 7.47 µM. It also gave a GI50 [34] of 4.87 µM, a TGI [34] of 9.46 µM and a GI50 [35] of 1.61 µM. For the same compound, the TGI [35] was 6.17 µM, the GI50 [36] was 3.03 µM and the TGI [36] was 10.2 µM. For the same compound, the GI50 [37] was 5.41 µM, the TGI [37] was 11.3 µM and the GI50 [38] was 3.93 µM. The TGI [38] was 8.82 µM, the GI50 [39] was 4.73 µM and the TGI [39] was 11 µM. It also gave a GI50 [40] of 3.14 µM, a TGI [40] of 8.72 µM and a GI50 [41] of 1.4 µM. The TGI [41] was 5.99 µM, the GI50 [42] was 1.28 µM and the TGI [42] was 4.57 µM. The GI50 [43] was 2.36 µM, the TGI [43] was 8.45 µM and the GI50 [44] was 2.5 µM. For the same compound, the TGI [44] was 7.44 µM, the GI50 [45] was 2.71 µM and the TGI [45] was 7.44 µM. For the same compound, the GI50 [46] was 4.04 µM, the TGI [46] was 9.42 µM and the GI50 [47] was 4.41 µM. The TGI [47] was 9.52 µM, the GI50 [48] was 4.2 µM and the TGI [48] was 16.4 µM. The GI50 [49] was 5.47 µM, the TGI [49] was 11.1 µM and the GI50 [50] was 5.34 µM. It also gave a TGI [50] of 10.4 µM, a GI50 [51] of 3.6 µM and a TGI [51] of 8.72 µM. It also gave a GI50 [52] of 3.76 µM, a TGI [52] of 8.08 µM and a GI50 [53] of 2.43 µM. The TGI [53] was 6.81 µM, the GI50 [54] was 5.27 µM and the TGI [54] was 10.6 µM. The GI50 [55] was 4.24 µM, the TGI [55] was 8.87 µM and the GI50 [56] was 3.49 µM. The TGI [56] was 9.7 µM, the GI50 [57] was 3.79 µM and the TGI [57] was 8.31 µM.
With `CC[C@@H](C)/C=C(C)/C=C/C(=O)c1c(O)c(-c2ccc(O)cc2)cn(O)c1=O` the GI50 [1] was 0.284 µM, the TGI [1] was 13.2 µM and the GI50 [58] was 1.38 µM. It also gave a TGI [58] of 15.7 µM, a GI50 [2] of 0.329 µM and a TGI [2] of 16.8 µM. The GI50 [3] was 0.492 µM, the TGI [3] was 14.7 µM and the GI50 [4] was 0.487 µM. For the same compound, the TGI [4] was 16.1 µM, the GI50 [5] was 7.19 µM and the TGI [5] was 20.6 µM. It also gave a GI50 [6] of 0.201 µM, a TGI [6] of 0.562 µM and a GI50 [7] of 0.524 µM. The TGI [7] was 15.3 µM, the GI50 [8] was 0.22 µM and the TGI [8] was 2.25 µM. The GI50 [9] was 0.733 µM, the TGI [9] was 23 µM and the GI50 [10] was 2.31 µM. The TGI [10] was 13.1 µM, the GI50 [11] was 2.83 µM and the TGI [11] was 34.5 µM. The GI50 [12] was 0.261 µM, the TGI [12] was 12.5 µM and the GI50 [13] was 0.395 µM. The TGI [13] was 13 µM, the GI50 [14] was 0.395 µM and the TGI [14] was 13 µM. The GI50 [15] was 0.327 µM, the TGI [15] was 10.7 µM and the GI50 [16] was 0.674 µM. It also gave a TGI [16] of 19.2 µM, a GI50 [17] of 0.31 µM and a TGI [17] of 15.7 µM. For the same compound, the GI50 [18] was 0.341 µM, the TGI [18] was 12 µM and the GI50 [19] was 0.575 µM. It also gave a TGI [19] of 16.3 µM, a GI50 [20] of 0.479 µM and a TGI [20] of 13.1 µM. It also gave a GI50 [21] of 0.29 µM, a TGI [21] of 1.55 µM and a GI50 [22] of 0.137 µM. The TGI [22] was 1.86 µM, the GI50 [23] was 0.392 µM and the TGI [23] was over 41.2 µM. The GI50 [24] was 0.421 µM, the TGI [24] was 11.4 µM and the GI50 [25] was 1.31 µM. The TGI [25] was 12 µM, the GI50 [26] was 0.25 µM and the TGI [26] was 4.82 µM. It also gave a GI50 [27] of 0.361 µM, a TGI [27] of 5.17 µM and a GI50 [28] of 0.365 µM. It also gave a TGI [28] of 16.5 µM, a GI50 [29] of 1.6 µM and a TGI [29] of 13.1 µM. The GI50 [30] was 0.27 µM, the TGI [30] was 13.5 µM and the GI50 [31] was 0.391 µM. It also gave a TGI [31] of 12.3 µM, a GI50 [32] of 0.266 µM and a TGI [32] of 0.966 µM. It also gave a GI50 [33] of 0.609 µM, a TGI [33] of 28.5 µM and a GI50 [34] of 0.33 µM. It also gave a TGI [34] of 9.55 µM, a GI50 [35] of 0.266 µM and a TGI [35] of 3.68 µM. For the same compound, the GI50 [36] was 0.504 µM, the TGI [36] was 18 µM and the GI50 [37] was 0.496 µM. It also gave a TGI [37] of 13.8 µM, a GI50 [38] of 2.71 µM and a TGI [38] of 20.8 µM. The GI50 [39] was 0.562 µM, the TGI [39] was 9.93 µM and the GI50 [40] was 1.99 µM. For the same compound, the TGI [40] was 12.7 µM, the GI50 [41] was 0.396 µM and the TGI [41] was 16.1 µM. For the same compound, the GI50 [42] was 3.22 µM, the TGI [42] was 11.4 µM and the GI50 [43] was 3.2 µM. For the same compound, the TGI [43] was 18.8 µM, the GI50 [44] was 0.292 µM and the TGI [44] was 1.11 µM. For the same compound, the GI50 [45] was 0.703 µM, the TGI [45] was 9.99 µM and the GI50 [46] was 0.55 µM. For the same compound, the TGI [46] was 14 µM, the GI50 [47] was 0.642 µM and the TGI [47] was 21.7 µM. It also gave a GI50 [48] of 0.314 µM, a TGI [48] of 13.1 µM and a GI50 [49] of 0.274 µM. For the same compound, the TGI [49] was 4.88 µM, the GI50 [50] was 0.317 µM and the TGI [50] was 6.95 µM. For the same compound, the GI50 [51] was 0.255 µM, the TGI [51] was 4.7 µM and the GI50 [52] was 0.374 µM. For the same compound, the TGI [52] was 11.2 µM, the GI50 [53] was 0.288 µM and the TGI [53] was 7.64 µM. The GI50 [54] was 0.399 µM, the TGI [54] was 3.74 µM and the GI50 [55] was 0.468 µM. For the same compound, the TGI [55] was 17.5 µM, the GI50 [56] was 0.33 µM and the TGI [56] was 12.3 µM. For the same compound, the GI50 [57] was 0.369 µM and the TGI [57] was 5.83 µM.
